Laboratory results reported in US10259810B2, “N-sulfonylated pyrazolo[3,4-b]pyridin-6-carboxamides and method of use” (AbbVie S.à.r.l., priority 2015, dated 2019).

Legend:
ΔF508-CFTR [1] = target: T1, ΔF508-CFTR (Homo sapiens, UniProt P13569, DEL508-508); assay: CFTR cell surface levels using HRP-tagged ΔF508-CFTR expressing CFBE cells, in the presence of a co-corrector; type: cell-based
T1 construct: host or cells: CFBE41o-, doxycycline-inducible
Summary of the method: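 Chemiluminescent read-out of surface HRP (15 min, dark) after PBS washes. Activity is normalized as 100×(sample−DMSO)/(3 μM co-corrector alone−DMSO).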

ΔF508-CFTR [2] = target: T1, ΔF508-CFTR; assay: CFTR cell surface levels using HRP-tagged ΔF508-CFTR expressing CFBE cells, intrinsic corrector capacity; type: cell-based; design: % Activation: concentration or dose not given beside the values
Source text: Measuring CFTR Cell Surface Levels Using HRP-Tagged ΔF508-CFTR Expressing CFBE Cells
The HRP-tagged ΔF508-CFTR cell assay measures the expression of CFTR-ΔF508 at the plasma membrane. CFTR-ΔF508 has a folding defect leading to absence of protein at the plasma membrane. This assay is used to evaluate the capacity of compounds to increase the expression of CFTR-ΔF508 at the plasma membrane. The CFTR-ΔF508 is tagged with HRP (horse radish peroxidase enzyme) within the ECL4 (Extracellular loop 4) of CFTR (Phuan, P.-W. et al. Synergy-based small-molecule screen using a human lung epithelial cell line yields ΔF508-CFTR correctors that augment VX-809 maximal efficacy. Mol. Pharmacol. 86, 42-51 (2014)). When HRP-tagged ΔF508-CFTR is present at the plasma membrane, the HRP enzyme activity can be measured. The amount of CFTR-ΔF508 that can be rescued to the plasma membrane is correlated with the amount of functional enzyme that can be measured.
There are several ways to measure the capacity of compounds to rescue CFTR-ΔF508 to the plasma membrane; either compounds are evaluated on their own and the impact on plasma membrane levels is measured or compounds are evaluated in combination with a co-corrector, i.e. a compound that rescues CFTR-ΔF508 to the plasma membrane but rescue can be enhanced by addition of compounds due to a complementary mode of action.
Activity of Compounds for their Intrinsic Corrector Capacity:
For this purpose doxycycline-inducible ΔF508-CFTR-HRP expressing CFBE4lo− cells (obtained from Gergely Lukacs, McGill University) were maintained in MEM (Gibco; 31095) supplemented with 10% fetal bovine serum (Hyclone; SV30160.03) under puromycin (3 μg/mL) and G418 selection (0.2 mg/mL). For compound testing, cells were seeded at 4000 cells/well in white 384-well plates (Greiner; 781080) in 50 μL medium containing 0.5 μg/mL doxycycline and incubated for 68 hours at 37° C., 5% CO2. On day four, […] compounds diluted in PBS were added to the plates at a final DMSO concentration of 0.1%. All compound plates contained negative controls (DMSO) and positive controls ([…] corrector, 3-[(2R,4R)-4-({[1-(2,2-difluoro-1,3-benzodioxol-5-yl)cyclopropyl]carbonyl}amino)-7-methoxy-3,4-dihydro-2H-chromen-2-yl]benzoic acid). Cell plates were incubated at 33° C., 5% CO2 for 20 hours. On day five, the cells were washed five times with phosphate-buffered saline, and HRP activity was assayed by the addition of 50 μL/well of HRP substrate (SuperSignal™ West Pico Chemiluminescent Substrate, Thermo Scientific; 34080). After incubation for 15 minutes in the dark, chemiluminescence was measured using a plate reader (EnVision®, Perkin Elmer). Raw data were normalized to percentage activity values using the equation: 100×(Sample−Negative control)/(Positive control−Negative Control).

[3] = HRP-tagged ΔF508-CFTR CFBE cells, in the presence of 3 μM co-corrector
[4] = HRP-tagged ΔF508-CFTR CFBE cells, in the presence of 3 μM co-corrector, read-out: EC50
[5] = HRP-tagged ΔF508-CFTR expressing CFBE41o- cells, compound alone (intrinsic corrector capacity), 20 hours at 33° C.
[6] = HRP-tagged ΔF508-CFTR expressing CFBE41o- cells, compound alone (intrinsic corrector capacity), 20 hours at 33° C., read-out: EC50

T1 sequence (P13569 with tags, fused parts or gaps DEL508-508): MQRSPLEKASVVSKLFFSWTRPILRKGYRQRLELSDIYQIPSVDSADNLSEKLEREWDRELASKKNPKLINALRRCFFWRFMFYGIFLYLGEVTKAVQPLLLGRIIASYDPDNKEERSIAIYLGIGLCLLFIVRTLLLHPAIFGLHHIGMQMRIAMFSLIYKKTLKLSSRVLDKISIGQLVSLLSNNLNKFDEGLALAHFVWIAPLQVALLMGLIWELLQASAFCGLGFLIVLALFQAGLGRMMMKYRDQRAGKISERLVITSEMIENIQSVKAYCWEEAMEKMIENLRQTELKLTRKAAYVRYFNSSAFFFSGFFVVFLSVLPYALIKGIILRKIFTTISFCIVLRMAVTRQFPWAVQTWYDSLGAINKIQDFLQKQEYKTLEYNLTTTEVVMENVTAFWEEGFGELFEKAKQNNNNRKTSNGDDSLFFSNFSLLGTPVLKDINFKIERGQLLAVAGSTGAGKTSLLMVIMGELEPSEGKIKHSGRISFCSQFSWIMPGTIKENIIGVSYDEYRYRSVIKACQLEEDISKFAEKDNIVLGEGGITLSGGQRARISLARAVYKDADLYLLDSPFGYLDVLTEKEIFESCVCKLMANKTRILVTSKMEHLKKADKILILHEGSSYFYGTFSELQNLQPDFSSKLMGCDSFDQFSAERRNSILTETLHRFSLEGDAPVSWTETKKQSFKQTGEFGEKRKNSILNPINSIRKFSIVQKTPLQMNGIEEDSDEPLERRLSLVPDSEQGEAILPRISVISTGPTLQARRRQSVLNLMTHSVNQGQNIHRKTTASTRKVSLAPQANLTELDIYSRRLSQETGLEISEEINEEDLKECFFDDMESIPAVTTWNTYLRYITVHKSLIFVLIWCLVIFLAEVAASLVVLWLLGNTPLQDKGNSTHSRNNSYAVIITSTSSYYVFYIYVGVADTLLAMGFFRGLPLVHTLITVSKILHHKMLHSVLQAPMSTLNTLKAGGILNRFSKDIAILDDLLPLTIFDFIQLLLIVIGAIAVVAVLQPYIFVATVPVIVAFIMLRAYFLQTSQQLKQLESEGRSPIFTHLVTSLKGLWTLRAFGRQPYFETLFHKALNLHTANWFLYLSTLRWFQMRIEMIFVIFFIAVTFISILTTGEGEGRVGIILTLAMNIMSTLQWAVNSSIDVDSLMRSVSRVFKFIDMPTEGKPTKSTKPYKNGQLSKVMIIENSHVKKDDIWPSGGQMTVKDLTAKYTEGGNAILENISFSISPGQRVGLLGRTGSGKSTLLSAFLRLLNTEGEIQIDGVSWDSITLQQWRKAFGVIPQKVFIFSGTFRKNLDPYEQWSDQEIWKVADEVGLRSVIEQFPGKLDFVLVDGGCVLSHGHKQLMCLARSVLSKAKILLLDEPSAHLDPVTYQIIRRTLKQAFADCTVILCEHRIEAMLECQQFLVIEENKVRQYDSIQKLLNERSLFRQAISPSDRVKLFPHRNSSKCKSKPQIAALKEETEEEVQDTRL

## CC1(COc2cc(C(=O)NS(C)(=O)=O)nc3c2c(C2CCC2)nn3-c2ccccc2)CC(F)(F)C1 [Compound 282, 3-cyclobutyl-4-[(3,3-difluoro-1-methylcyclobutyl)methoxy]-N-(methanesulfonyl)-1-phenyl-1H-pyrazolo[3,4-b]pyridine-6-carboxamide]
ΔF508-CFTR [1]; [3]
  % Activation: 379.95%
ΔF508-CFTR [1]; [4]
  EC50: 89 nM
ΔF508-CFTR [2]; [5]
  % Activation: 127.8%
ΔF508-CFTR [2]; [6]
  EC50: 129 nM

## CC(C)c1nn(C2CCCCC2)c2nc(C(=O)NS(C)(=O)=O)cc(-c3ccc(N(C)C4CCOCC4)nc3)c12 [Compound 51, 1-cyclohexyl-N-(methanesulfonyl)-4-{6-[methyl(oxan-4-yl)amino]pyridin-3-yl}-3-(propan-2-yl)-1H-pyrazolo[3,4-b]pyridine-6-carboxamide]
ΔF508-CFTR [1]; [3]
  % Activation: 420.67%
ΔF508-CFTR [1]; [4]
  EC50: 312 nM
ΔF508-CFTR [2]; [5]
  % Activation: 172.4%
ΔF508-CFTR [2]; [6]
  EC50: 457 nM

## CC(C)c1nn(-c2cccc(N3CCOCC3)c2)c2nc(C(=O)NS(C)(=O)=O)cc(-c3ccc(N(C)C4CCOCC4)cc3)c12 [Compound 97, N-(methanesulfonyl)-4-{4-[methyl(oxan-4-yl)amino]phenyl}-1-[3-(morpholin-4-yl)phenyl]-3-(propan-2-yl)-1H-pyrazolo[3,4-b]pyridine-6-carboxamide]
ΔF508-CFTR [1]; [3]
  % Activation: 692.82%
ΔF508-CFTR [1]; [4]
  EC50: 277 nM
ΔF508-CFTR [2]; [5]
  % Activation: 444.85%
ΔF508-CFTR [2]; [6]
  EC50: 399 nM

## CS(=O)(=O)NC(=O)c1cc(N2CC3(CCOCC3)C2)c2c(C3CCC3)nn(-c3ccccc3)c2n1 [Compound 204, 3-cyclobutyl-N-(methanesulfonyl)-4-(7-oxa-2-azaspiro[3.5]nonan-2-yl)-1-phenyl-1H-pyrazolo[3,4-b]pyridine-6-carboxamide]
ΔF508-CFTR [1]; [3]
  % Activation: 288.6%
ΔF508-CFTR [1]; [4]
  EC50: 490 nM
ΔF508-CFTR [2]; [5]
  % Activation: 117.6%
ΔF508-CFTR [2]; [6]
  EC50: 978 nM

## COC1CCN(c2cc(C(=O)NS(C)(=O)=O)nc3c2c(C(C)C)nn3-c2cccc(N3CCOCC3)n2)CC1 [Compound 217, N-(methanesulfonyl)-4-(4-methoxypiperidin-1-yl)-1-[6-(morpholin-4-yl)pyridin-2-yl]-3-(propan-2-yl)-1H-pyrazolo[3,4-b]pyridine-6-carboxamide]
ΔF508-CFTR [1]; [3]
  % Activation: 418.27%
ΔF508-CFTR [1]; [4]
  EC50: 257 nM
ΔF508-CFTR [2]; [5]
  % Activation: 246.77%
ΔF508-CFTR [2]; [6]
  EC50: 458 nM

## CCS(=O)(=O)NC(=O)c1cc(N2CCC(N3CCOCC3)CC2)c2c(C3CCC3)nn(-c3ccc(F)cc3)c2n1 [Compound 466, 3-cyclobutyl-N-(ethanesulfonyl)-1-(4-fluorophenyl)-4-[4-(morpholin-4-yl)piperidin-1-yl]-1H-pyrazolo[3,4-b]pyridine-6-carboxamide]
ΔF508-CFTR [1]; [3]
  % Activation: 522.47%
ΔF508-CFTR [1]; [4]
  EC50: 64.1 nM
ΔF508-CFTR [2]; [5]
  % Activation: 318.7%
ΔF508-CFTR [2]; [6]
  EC50: 176 nM

## CCOCC1(F)CCN(c2cc(C(=O)NS(C)(=O)=O)nc3c2c(C2CCC2)nn3-c2ccccc2)CC1 [Compound 501, 3-cyclobutyl-4-[4-(ethoxymethyl)-4-fluoropiperidin-1-yl]-N-(methanesulfonyl)-1-phenyl-1H-pyrazolo[3,4-b]pyridine-6-carboxamide]
ΔF508-CFTR [1]; [3]
  % Activation: 403.55%
ΔF508-CFTR [1]; [4]
  EC50: 124 nM
ΔF508-CFTR [2]; [5]
  % Activation: 188.7%
ΔF508-CFTR [2]; [6]
  EC50: 211 nM

## CN(C)S(=O)(=O)NC(=O)c1cc(N2CCC(N3CCOCC3)CC2)c2c(C3CCC3)nn(-c3cccc(F)c3)c2n1 [Compound 512, 3-cyclobutyl-N-(dimethylsulfamoyl)-1-(3-fluorophenyl)-4-[4-(morpholin-4-yl)piperidin-1-yl]-1H-pyrazolo[3,4-b]pyridine-6-carboxamide]
ΔF508-CFTR [1]; [3]
  % Activation: 415.25%
ΔF508-CFTR [1]; [4]
  EC50: 65.3 nM
ΔF508-CFTR [2]; [5]
  % Activation: 222.27%
ΔF508-CFTR [2]; [6]
  EC50: 121 nM

## CC(C)N1CCN(c2ccc(-c3cc(C(=O)NS(=O)(=O)N(C)C)nc4c3c(C3CCC3)nn4C3CCCCC3)cn2)CC1 [Compound 542, 3-cyclobutyl-1-cyclohexyl-N-(dimethylsulfamoyl)-4-{6-[4-(propan-2-yl)piperazin-1-yl]pyridin-3-yl}-1H-pyrazolo[3,4-b]pyridine-6-carboxamide]
ΔF508-CFTR [1]; [3]
  % Activation: 320.3%
ΔF508-CFTR [1]; [4]
  EC50: 216 nM
ΔF508-CFTR [2]; [5]
  % Activation: 153.2%
ΔF508-CFTR [2]; [6]
  EC50: 267 nM

## O=C(NS(=O)(=O)C1COC1)c1cc(N2CCC(N3CCOCC3)CC2)c2c(C3CCC3)nn(-c3ccc(F)cc3)c2n1 [Compound 506, 3-cyclobutyl-1-(4-fluorophenyl)-4-[4-(morpholin-4-yl)piperidin-1-yl]-N-(oxetane-3-sulfonyl)-1H-pyrazolo[3,4-b]pyridine-6-carboxamide]
ΔF508-CFTR [1]; [3]
  % Activation: 308.95%
ΔF508-CFTR [1]; [4]
  EC50: 941 nM
ΔF508-CFTR [2]; [5]
  % Activation: 144.1%
ΔF508-CFTR [2]; [6]
  EC50: 3330 nM

## CC(C)c1nn(-c2cccc(N3CCOCC3)c2)c2nc(C(=O)NS(C)(=O)=O)cc(-c3cnc(N4CCC(C#N)CC4)nc3)c12 [Compound 99, 4-[2-(4-cyanopiperidin-1-yl)pyrimidin-5-yl]-N-(methanesulfonyl)-1-[3-(morpholin-4-yl)phenyl]-3-(propan-2-yl)-1H-pyrazolo[3,4-b]pyridine-6-carboxamide]
ΔF508-CFTR [1]; [3]
  % Activation: 601.15%
ΔF508-CFTR [1]; [4]
  EC50: 337 nM
ΔF508-CFTR [2]; [5]
  % Activation: 414.8%
ΔF508-CFTR [2]; [6]
  EC50: 410 nM

## CCS(=O)(=O)NC(=O)c1cc(N2CCCC(OC)C2)c2c(C(C)C)nn(-c3cccc(C)c3)c2n1 (centres unmarked) [Compound 163, N-(ethanesulfonyl)-4-(3-methoxypiperidin-1-yl)-1-(3-methylphenyl)-3-(propan-2-yl)-1H-pyrazolo[3,4-b]pyridine-6-carboxamide]
ΔF508-CFTR [1]; [3]
  % Activation: 342.3%
ΔF508-CFTR [1]; [4]
  EC50: 112 nM
ΔF508-CFTR [2]; [5]
  % Activation: 175.4%
ΔF508-CFTR [2]; [6]
  EC50: 442 nM

## CN(C)S(=O)(=O)NC(=O)c1cc(N2CCC(N3CCCCC3)CC2)c2c(C3CCC3)nn(-c3ccccc3)c2n1 [Compound 426, 4-([1,4′-bipiperidin]-1′-yl)-3-cyclobutyl-N-(dimethylsulfamoyl)-1-phenyl-1H-pyrazolo[3,4-b]pyridine-6-carboxamide]
ΔF508-CFTR [1]
  EC50: 82 nM
ΔF508-CFTR [1]; [3]
  % Activation: 385.3%
ΔF508-CFTR [2]
  EC50: 302 nM
ΔF508-CFTR [2]; [5]
  % Activation: 143.7%

## CS(=O)(=O)NC(=O)c1cc(-c2ccc(N3CCC(C#N)CC3)nc2)c2c(OC3CCNCC3)nn(-c3ccccc3)c2n1 [Compound 258, 4-[6-(4-cyanopiperidin-1-yl)pyridin-3-yl]-N-(methanesulfonyl)-1-phenyl-3-[(piperidin-4-yl)oxy]-1H-pyrazolo[3,4-b]pyridine-6-carboxamide]
ΔF508-CFTR [1]; [3]
  % Activation: 127.1%
ΔF508-CFTR [1]; [4]
  EC50: > 10000 nM
ΔF508-CFTR [2]; [5]
  % Activation: 8.829%
ΔF508-CFTR [2]; [6]
  EC50: > 10000 nM

## Cc1nn(C2CCCCC2)c2nc(C(=O)NS(C)(=O)=O)cc(-c3ccc(N4CCOCC4)nc3)c12 [Compound 47, 1-cyclohexyl-N-(methanesulfonyl)-3-methyl-4-[6-(morpholin-4-yl)pyridin-3-yl]-1H-pyrazolo[3,4-b]pyridine-6-carboxamide]
ΔF508-CFTR [1]; [3]
  % Activation: 408.77%
ΔF508-CFTR [1]; [4]
  EC50: 1600 nM
ΔF508-CFTR [2]; [5]
  % Activation: 169.73%
ΔF508-CFTR [2]; [6]
  EC50: 1860 nM

## Cc1cccc(-n2nc(C(C)C)c3c(N4CCC5(CCOCC5)C4)cc(C(=O)NS(C)(=O)=O)nc32)c1 [Compound 171, N-(methanesulfonyl)-1-(3-methylphenyl)-4-(8-oxa-2-azaspiro[4.5]decan-2-yl)-3-(propan-2-yl)-1H-pyrazolo[3,4-b]pyridine-6-carboxamide]
ΔF508-CFTR [1]; [3]
  % Activation: 289.23%
ΔF508-CFTR [1]; [4]
  EC50: 312 nM
ΔF508-CFTR [2]; [5]
  % Activation: 143.4%
ΔF508-CFTR [2]; [6]
  EC50: 787 nM

## CS(=O)(=O)NC(=O)c1cc(N2CCC(N3CCC(C(F)(F)F)C3)CC2)c2c(C3CCC3)nn(-c3ccc(F)cc3)c2n1 (centres unmarked) [Compound 564, 3-cyclobutyl-1-(4-fluorophenyl)-N-(methanesulfonyl)-4-{4-[3-(trifluoromethyl)pyrrolidin-1-yl]piperidin-1-yl}-1H-pyrazolo[3,4-b]pyridine-6-carboxamide]
ΔF508-CFTR [1]; [3]
  % Activation: 587.4%
ΔF508-CFTR [1]; [4]
  EC50: 40.8 nM
ΔF508-CFTR [2]; [5]
  % Activation: 361.35%
ΔF508-CFTR [2]; [6]
  EC50: 118 nM
